Paper PMC6437697 (Journal of Medicinal Chemistry, 2019)

Key:
Experiment in all cases: KINOMEscan
Format in all cases: binding
Settings in all cases: read-out: % control activity remaining
EPHB1 = target: T1, EPHB1 (Homo sapiens, UniProt P54762)
T1 construct: purchased Eurofins DiscoverX KINOMEscan
T1 sequence (P54762 18-984): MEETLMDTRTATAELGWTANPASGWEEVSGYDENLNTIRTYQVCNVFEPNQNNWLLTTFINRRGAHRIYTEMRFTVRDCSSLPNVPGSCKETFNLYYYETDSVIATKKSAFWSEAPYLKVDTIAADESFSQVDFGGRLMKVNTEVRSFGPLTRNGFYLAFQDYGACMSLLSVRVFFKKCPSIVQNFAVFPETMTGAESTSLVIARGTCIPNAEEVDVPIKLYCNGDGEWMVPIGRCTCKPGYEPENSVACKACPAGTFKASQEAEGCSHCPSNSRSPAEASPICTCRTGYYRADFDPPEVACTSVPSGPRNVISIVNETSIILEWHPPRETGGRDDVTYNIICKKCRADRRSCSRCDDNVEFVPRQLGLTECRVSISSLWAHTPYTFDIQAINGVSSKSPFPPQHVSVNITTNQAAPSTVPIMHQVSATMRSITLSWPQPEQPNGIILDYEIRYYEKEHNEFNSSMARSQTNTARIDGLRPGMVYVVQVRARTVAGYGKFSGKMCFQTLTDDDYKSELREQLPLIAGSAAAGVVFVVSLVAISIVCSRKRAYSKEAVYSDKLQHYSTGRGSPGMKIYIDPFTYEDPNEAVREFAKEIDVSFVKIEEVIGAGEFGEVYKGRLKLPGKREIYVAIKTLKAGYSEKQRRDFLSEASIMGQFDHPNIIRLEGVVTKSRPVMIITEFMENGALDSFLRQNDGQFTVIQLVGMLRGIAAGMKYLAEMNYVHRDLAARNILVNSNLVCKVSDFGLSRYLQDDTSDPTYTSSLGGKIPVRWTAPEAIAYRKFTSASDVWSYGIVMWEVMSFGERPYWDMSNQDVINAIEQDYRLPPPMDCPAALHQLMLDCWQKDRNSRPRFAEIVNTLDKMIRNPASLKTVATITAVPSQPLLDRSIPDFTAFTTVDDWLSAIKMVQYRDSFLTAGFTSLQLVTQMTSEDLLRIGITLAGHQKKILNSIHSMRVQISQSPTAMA

CHEK1 = target: T2, CHEK1 (Homo sapiens, UniProt O14757)
T2 construct: purchased Eurofins DiscoverX KINOMEscan
T2 sequence (O14757 1-476): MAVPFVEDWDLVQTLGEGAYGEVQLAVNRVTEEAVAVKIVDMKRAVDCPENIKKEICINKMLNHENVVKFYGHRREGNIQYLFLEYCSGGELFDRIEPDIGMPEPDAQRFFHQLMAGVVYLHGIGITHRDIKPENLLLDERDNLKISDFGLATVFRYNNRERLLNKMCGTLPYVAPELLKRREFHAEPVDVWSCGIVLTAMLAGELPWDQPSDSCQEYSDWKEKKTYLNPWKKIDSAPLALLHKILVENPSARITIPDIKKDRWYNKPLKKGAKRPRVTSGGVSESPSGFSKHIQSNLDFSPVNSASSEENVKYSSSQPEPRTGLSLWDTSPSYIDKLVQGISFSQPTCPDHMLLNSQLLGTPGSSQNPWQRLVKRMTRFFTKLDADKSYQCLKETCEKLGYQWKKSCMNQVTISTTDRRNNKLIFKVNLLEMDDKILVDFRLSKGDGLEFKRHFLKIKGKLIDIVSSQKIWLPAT

MAK = target: T3, MAK (Homo sapiens, UniProt P20794)
T3 construct: purchased Eurofins DiscoverX KINOMEscan
T3 sequence (P20794 1-623): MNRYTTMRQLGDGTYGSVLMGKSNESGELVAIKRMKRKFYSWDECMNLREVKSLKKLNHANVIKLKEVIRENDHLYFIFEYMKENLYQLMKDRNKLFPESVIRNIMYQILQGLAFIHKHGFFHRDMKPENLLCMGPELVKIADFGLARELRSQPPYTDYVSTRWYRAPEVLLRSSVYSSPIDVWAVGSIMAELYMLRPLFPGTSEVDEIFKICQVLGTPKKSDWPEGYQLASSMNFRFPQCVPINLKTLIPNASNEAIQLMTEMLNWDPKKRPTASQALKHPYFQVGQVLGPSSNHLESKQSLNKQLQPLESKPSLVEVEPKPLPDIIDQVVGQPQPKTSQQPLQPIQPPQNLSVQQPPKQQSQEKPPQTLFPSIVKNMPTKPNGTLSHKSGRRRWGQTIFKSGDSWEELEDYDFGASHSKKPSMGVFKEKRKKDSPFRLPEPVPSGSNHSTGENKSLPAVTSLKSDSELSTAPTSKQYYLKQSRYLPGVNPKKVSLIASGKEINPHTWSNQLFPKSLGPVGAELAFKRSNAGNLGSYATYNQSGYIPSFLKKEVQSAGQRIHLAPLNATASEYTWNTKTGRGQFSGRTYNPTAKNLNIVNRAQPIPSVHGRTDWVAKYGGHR

PLK4 = target: T4, PLK4 (Homo sapiens, UniProt O00444)
T4 construct: purchased Eurofins DiscoverX KINOMEscan
T4 sequence (O00444 1-970): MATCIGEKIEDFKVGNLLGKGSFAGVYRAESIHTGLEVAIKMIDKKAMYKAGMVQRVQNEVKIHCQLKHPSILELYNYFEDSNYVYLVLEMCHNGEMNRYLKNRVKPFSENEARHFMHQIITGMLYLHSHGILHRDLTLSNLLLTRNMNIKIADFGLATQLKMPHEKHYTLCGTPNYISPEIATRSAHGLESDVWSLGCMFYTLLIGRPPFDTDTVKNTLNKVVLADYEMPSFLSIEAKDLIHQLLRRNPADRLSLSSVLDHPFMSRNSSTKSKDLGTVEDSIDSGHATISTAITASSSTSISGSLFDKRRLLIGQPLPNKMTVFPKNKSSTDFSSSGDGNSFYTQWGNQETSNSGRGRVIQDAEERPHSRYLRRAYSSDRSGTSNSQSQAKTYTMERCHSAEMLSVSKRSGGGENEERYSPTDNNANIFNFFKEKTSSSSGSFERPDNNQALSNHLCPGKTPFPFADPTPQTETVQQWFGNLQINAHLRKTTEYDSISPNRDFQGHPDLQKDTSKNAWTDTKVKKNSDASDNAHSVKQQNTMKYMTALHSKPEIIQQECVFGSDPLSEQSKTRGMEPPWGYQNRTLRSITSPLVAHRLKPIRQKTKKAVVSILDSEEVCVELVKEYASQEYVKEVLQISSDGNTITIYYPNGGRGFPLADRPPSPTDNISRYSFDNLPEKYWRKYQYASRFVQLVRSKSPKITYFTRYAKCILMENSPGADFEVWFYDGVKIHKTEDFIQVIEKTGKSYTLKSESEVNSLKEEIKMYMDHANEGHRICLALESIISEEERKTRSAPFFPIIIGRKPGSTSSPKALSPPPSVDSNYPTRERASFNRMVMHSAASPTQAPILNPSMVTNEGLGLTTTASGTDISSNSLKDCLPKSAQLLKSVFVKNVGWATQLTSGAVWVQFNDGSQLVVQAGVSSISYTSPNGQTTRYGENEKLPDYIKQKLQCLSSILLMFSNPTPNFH

SMILES | remaining binding at 1 µM (EPHB1) [%] | remaining binding at 1 µM (CHEK1) [%] | remaining binding at 1 µM (MAK) [%] | remaining binding at 1 µM (PLK4) [%]
Clc1cc(NCC2CC2)c2ncc(-c3ccc4[nH]ncc4c3)n2n1 [compound 2, 6-Chloro-N-(cyclopropylmethyl)-3-(1H-indazol-5-yl)imidazo[1,2-b]pyridazin-8-amine] | 100 | 88 | 82 | 87
O=C(CN1CCOCC1)N[C@H]1CC[C@H](Nc2cc(Cl)nn3c(-c4ccc5[nH]ncc5c4)cnc23)CC1 [compound 26] | 89 | 100 | 61 | 100
CN1CCC(CNc2cc(Cl)nn3c(-c4cc5nc(Nc6ccccc6)[nH]c5cc4F)cnc23)CC1 [compound 31, 6-Chloro-3-(6-fluoro-2-(phenylamino)-1H-benzo[d]imidazol-5-yl)-N-((1-methylpiperidin-4-yl)methyl)imidazo[1,2-b]pyridazin-8-amine] | 84 | 100 | 69 | 99
